From US7550135B2, “Composition for external application” (Kao Corporation, priority 2001, dated 2009)

Assay: Miscibility and mixing stability in formulations
Assay type: physicochemical

miscibility and mixing stability (O/W cream of Example 2, 3.5%): excellent
miscibility and mixing stability (hair liquid composition of Example 4, 1.0%): excellent
miscibility and mixing stability (night cream of Example 5, 10.0%): excellent
miscibility and mixing stability (shampoo of Example 3, 2.0%): excellent
miscibility and mixing stability (skin lotion of Example 1, 1.0%): excellent
miscibility and mixing stability (sunscreen emulsion of Example 6, 3.0%): excellent
Compound: CC(CC(=O)NCCOCCOCCNC(=O)CC(C)CC(C)(C)C)CC(C)(C)C (stereo not drawn) [Compound (K)]
